Laboratory results taken from US12357565B2, “Ocular implant containing a tyrosine kinase inhibitor” (Ocular Therapeutix, Inc., priority 2020, dated 2025).

Assays:
[1] = Rugo et al. 2005, patients; cited from earlier work
[2] = system: VEGF-induced vascular leakage; assay: VEGF challenge in rabbits: vascular leakage scored by fluorescein angiography; assay type: in vivo; settings: rabbit; 1.25 mg Avastin® alone (group 3)
[3] = 1.25 mg dose, rabbits (Sinapis et al., 2011); cited from earlier work

Row | Compound | Clearance half-life (t1/2) [1] | Time after which vascular leakage re-occurred (effect lasted until) [2] [months] | Half-life [3] [h]
1 | CNC(=O)c1ccccc1Sc1ccc2c(/C=C/c3ccccn3)n[nH]c2c1 [axitinib, N-methyl-2-[3-((E)-2-pyridin-2-yl-vinyl)-1H-indazol-6-ylsulfanyl]-benzamide] | a few hours | – | –
2 | Avastin®: anti-VEGF therapeutic, 1.25 mg intravitreal | – | 3 | 158
